# Test results from patent publication US6737383B1, “Herbicidal oxadiazolidines” (priority 1999, dated 2004).
# Assays:
# [1] = system: Green foxtail; assay: Test D green foxtail; assay type: in vivo; settings: Preemergence, 0 to 100 scale
# Summary of the method: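 Seeds were sown in greenhouse pots, one species per pot or compartment. Compounds were in a non-phytotoxic solvent mixture with surfactant; preemergence applications went on the sandy loam surface within one day of planting. Injury was rated visually after 14 to 21 days, 0 (none) to 100 (complete control).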
# [2] = system: velvetleaf; assay: Test A velvetleaf; assay type: in vivo, Abutilon theophrasti; settings: 0 to 10 scale where 0 is no effect and 10 is complete control
# Summary of the method: (§1)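 Ratings came from visual comparison with untreated plants about eleven days after treatment, scored 0 for no effect through 10 for complete control. Both soil-drench preemergence and runoff-spray postemergence applications were made at the same time.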
# [3] = system: crabgrass; assay: Test A crabgrass; assay type: in vivo, Digitaria spp.; settings: 0 to 10 scale where 0 is no effect and 10 is complete control
# Summary of the method: as §1
# [4] = system: morningglory; assay: Test A morningglory; assay type: in vivo, Ipomoea spp.; settings: 0 to 10 scale where 0 is no effect and 10 is complete control
# Summary of the method: as §1
# [5] = system: barnyardgrass; assay: Test A barnyardgrass; assay type: in vivo, Echinochloa crus-galli; settings: 0 to 10 scale where 0 is no effect and 10 is complete control
# Summary of the method: as §1
# [6] = system: redroot pigweed; assay: Test C postemergence redroot pigweed; assay type: in vivo, Amaranthus retroflexus; settings: 0 to 100 scale, 0 no effect, 100 complete control
# Experimental: (§2) Compounds evaluated in this test were formulated in a non-phytotoxic solvent mixture which included a surfactant and applied to plants that were grown for various periods of time before treatment (postemergence application). A mixture of sandy loam soil and greenhouse potting mix in a 60:40 ratio was used for the postemergence test.
# (§3) Plantings of these crops and weed species were adjusted to produce plants of appropriate size for the postemergence test. All plant species were grown using normal greenhouse practices. Crop and weed species include arrowleaf sida (Sida rhombifolia), barnyardgrass (Echinochloa crus-galli), cocklebur (Xanthium strumarium), common ragweed (Ambrosia elatior), corn (Zea mays), cotton (Gossypium hirsutum), eastern black nightshade (Solanum ptycanthum), fall panicum (Panicum dichotomiflorum), field bindweed (Convolvulus arvensis), giant foxtail (Setaria faberii), hairy beggarticks (Bidens pilosa), ivyleaf morningglory (Ipomoea hederacea), johnsongrass (Sorghum halepense), ladysthumb smartweed (Polygonum persicaria), lambsquarters (Chenopodium album), large crabgrass (Digitaria sanguinalis), purple nutsedge (Cyperus rotundus), redroot pigweed (Amaranthus retroflexus), soybean (Glycine max), surinam grass (Brachiaria decumbens), velvetleaf (Abutilon theophrasti) and wild poinsettia (Euphorbia heterophylla).
# (§4) Treated plants and untreated controls were maintained in a greenhouse for approximately 14, to 21 days, after which all treated plants were compared to untreated controls and visually evaluated. Plant response ratings, summarized in Table C, were based upon a 0 to 100 scale where 0 was no effect and 100 was complete control. A dash response (−) means no test result.
# [7] = system: hairy beggarticks; assay: Test C postemergence hairy beggarticks; assay type: in vivo, Bidens pilosa; settings: 0 to 100 scale, 0 no effect, 100 complete control
# Summary of the method: (§5)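 Postemergence spray; formulation = non-phytotoxic solvent + surfactant; soil 60:40 sandy loam:greenhouse potting mix; greenhouse, ~14–21 d; visual rating vs untreated, 0–100 (100 = complete control).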
# [8] = system: lambsquarters; assay: Test C postemergence lambsquarters; assay type: in vivo, Chenopodium album; settings: 0 to 100 scale, 0 no effect, 100 complete control
# Experimental: as §2, §3, §4
# [9] = system: cocklebur; assay: Test C postemergence cocklebur; assay type: in vivo, Xanthium strumarium; settings: 0 to 100 scale, 0 no effect, 100 complete control
# Experimental: as §2, §3, §4
# [10] = system: common ragweed; assay: Test C postemergence common ragweed; assay type: in vivo, Ambrosia elatior; settings: 0 to 100 scale, 0 no effect, 100 complete control
# Summary of the method: as §5
# [11] = system: barnyardgrass; assay: Test C postemergence barnyardgrass; assay type: in vivo, Echinochloa crus-galli; settings: 0 to 100 scale, 0 no effect, 100 complete control
# Summary of the method: as §5
# [12] = system: johnsongrass; assay: Test C postemergence johnsongrass; assay type: in vivo, Sorghum halepense; settings: 0 to 100 scale, 0 no effect, 100 complete control
# Summary of the method: as §5
# [13] = system: fall panicum; assay: Test C postemergence fall panicum; assay type: in vivo, Panicum dichotomiflorum; settings: 0 to 100 scale, 0 no effect, 100 complete control
# Experimental: as §2, §3, §4
# [14] = system: surinam grass; assay: Test C postemergence surinam grass; assay type: in vivo, Brachiaria decumbens; settings: 0 to 100 scale, 0 no effect, 100 complete control
# Summary of the method: as §5
# [15] = system: giant foxtail; assay: Test C postemergence giant foxtail; assay type: in vivo, Setaria faberii; settings: 0 to 100 scale, 0 no effect, 100 complete control
# Experimental: as §2, §3, §4
# [16] = system: eastern black nightshade; assay: Test C postemergence eastern black nightshade; assay type: in vivo, Solanum ptycanthum; settings: 0 to 100 scale, 0 no effect, 100 complete control
# Experimental: as §2, §3, §4
# [17] = system: velvetleaf; assay: Test C postemergence velvetleaf; assay type: in vivo, Abutilon theophrasti; settings: 0 to 100 scale, 0 no effect, 100 complete control
# Experimental: as §2, §3, §4
# [18] = system: field bindweed; assay: Test C postemergence field bindweed; assay type: in vivo, Convolvulus arvensis; settings: 0 to 100 scale, 0 no effect, 100 complete control
# Experimental: as §2, §3, §4
# [19] = system: wild poinsettia; assay: Test C postemergence wild poinsettia; assay type: in vivo, Euphorbia heterophylla; settings: 0 to 100 scale, 0 no effect, 100 complete control
# Experimental: as §2, §3, §4
smiles,measurement,setting,value
Cc1ccccc1-n1c(=O)on(C(=O)N(c2ccccc2)C(C)C)c1=O [Compound 36],"Plant response rating, Green foxtail",[1]; Rate 500 g/ha,100
CC(C)N(C(=O)n1oc(=O)n(C)c1=O)c1ccc(Cl)cc1 [Compound 137],"Plant response rating, Velvetleaf","[2]; Postemergence, Rate 1000 g/ha",2
same,"Plant response rating, Velvetleaf","[2]; Pre-emergence, Rate 2000 g/ha",5
same,"Plant response rating, Crabgrass","[3]; Postemergence, Rate 1000 g/ha",8
same,"Plant response rating, Crabgrass","[3]; Pre-emergence, Rate 2000 g/ha",10
same,"Plant response rating, Morningglory","[4]; Postemergence, Rate 1000 g/ha",10
same,"Plant response rating, Morningglory","[4]; Pre-emergence, Rate 2000 g/ha",3
same,"Plant response rating, Barnyardgrass","[5]; Postemergence, Rate 1000 g/ha",8
same,"Plant response rating, Barnyardgrass","[5]; Pre-emergence, Rate 2000 g/ha",10
Cc1ccccc1-n1c(=O)on(C(=O)N(c2cc(OC(C)C)c(Cl)cc2Cl)C(C)C)c1=O [Compound 42],"Plant response rating, Velvetleaf","[2]; Postemergence, Rate 1000 g/ha",0
same,"Plant response rating, Velvetleaf","[2]; Pre-emergence, Rate 2000 g/ha",0
same,"Plant response rating, Crabgrass","[3]; Postemergence, Rate 1000 g/ha",0
same,"Plant response rating, Crabgrass","[3]; Pre-emergence, Rate 2000 g/ha",0
same,"Plant response rating, Morningglory","[4]; Postemergence, Rate 1000 g/ha",0
same,"Plant response rating, Morningglory","[4]; Pre-emergence, Rate 2000 g/ha",0
same,"Plant response rating, Barnyardgrass","[5]; Postemergence, Rate 1000 g/ha",0
same,"Plant response rating, Barnyardgrass","[5]; Pre-emergence, Rate 2000 g/ha",0
C=CCn1c(=O)on(C(=O)N(c2ccc(F)cc2)C(C)C)c1=O [Compound 146],"Plant response rating, Redroot pigweed",[6]; Rate 140 g/ha,0
same,"Plant response rating, Redroot pigweed",[6]; Rate 1120 g/ha,20
same,Plant response rating H. beggarticks,[7]; Rate 140 g/ha,10
same,Plant response rating H. beggarticks,[7]; Rate 280 g/ha,20
same,Plant response rating H. beggarticks,[7]; Rate 560 g/ha,85
same,Plant response rating H. beggarticks,[7]; Rate 1120 g/ha,85
same,Plant response rating Lambsquarters,[8]; Rate 140 g/ha,0
same,Plant response rating Lambsquarters,[8]; Rate 280 g/ha,5
same,Plant response rating Lambsquarters,[8]; Rate 560 g/ha,10
same,Plant response rating Lambsquarters,[8]; Rate 1120 g/ha,50
same,"Plant response rating, Cocklebur",[9]; Rate 140 g/ha,40
same,"Plant response rating, Cocklebur",[9]; Rate 280 g/ha,40
same,"Plant response rating, Cocklebur",[9]; Rate 560 g/ha,70
same,"Plant response rating, Cocklebur",[9]; Rate 1120 g/ha,70
same,Plant response rating Common ragweed,[10]; Rate 140 g/ha,10
same,Plant response rating Common ragweed,[10]; Rate 560 g/ha,30
same,Plant response rating Common ragweed,[10]; Rate 1120 g/ha,30
same,"Plant response rating, Barnyardgrass",[11]; Rate 140 g/ha,60
same,"Plant response rating, Barnyardgrass",[11]; Rate 280 g/ha,80
same,"Plant response rating, Barnyardgrass",[11]; Rate 560 g/ha,85
same,"Plant response rating, Barnyardgrass",[11]; Rate 1120 g/ha,95
same,Plant response rating Johnsongrass,[12]; Rate 140 g/ha,0
same,Plant response rating Johnsongrass,[12]; Rate 280 g/ha,30
same,Plant response rating Johnsongrass,[12]; Rate 560 g/ha,60
same,Plant response rating Johnsongrass,[12]; Rate 1120 g/ha,90
same,Plant response rating Fall panicum,[13]; Rate 140 g/ha,50
same,Plant response rating Fall panicum,[13]; Rate 280 g/ha,60
same,Plant response rating Fall panicum,[13]; Rate 560 g/ha,90
same,Plant response rating Fall panicum,[13]; Rate 1120 g/ha,90
same,Plant response rating Surinam grass,[14]; Rate 140 g/ha,0
same,Plant response rating Surinam grass,[14]; Rate 280 g/ha,5
same,Plant response rating Surinam grass,[14]; Rate 560 g/ha,50
same,Plant response rating Surinam grass,[14]; Rate 1120 g/ha,95
same,"Plant response rating, Giant foxtail",[15]; Rate 140 g/ha,0
same,"Plant response rating, Giant foxtail",[15]; Rate 280 g/ha,40
same,"Plant response rating, Giant foxtail",[15]; Rate 560 g/ha,80
same,"Plant response rating, Giant foxtail",[15]; Rate 1120 g/ha,85
same,Plant response rating E. blacknightsh,[16]; Rate 140 g/ha,0
same,Plant response rating E. blacknightsh,[16]; Rate 280 g/ha,30
same,Plant response rating E. blacknightsh,[16]; Rate 560 g/ha,85
same,Plant response rating E. blacknightsh,[16]; Rate 1120 g/ha,85
same,"Plant response rating, Velvetleaf",[17]; Rate 140 g/ha,0
same,"Plant response rating, Velvetleaf",[17]; Rate 280 g/ha,40
same,"Plant response rating, Velvetleaf",[17]; Rate 560 g/ha,40
same,"Plant response rating, Velvetleaf",[17]; Rate 1120 g/ha,60
same,Plant response rating Field bindweed,[18]; Rate 140 g/ha,0
same,Plant response rating Field bindweed,[18]; Rate 280 g/ha,0
same,Plant response rating Field bindweed,[18]; Rate 560 g/ha,0
same,Plant response rating Field bindweed,[18]; Rate 1120 g/ha,0
same,"Plant response rating, Green foxtail",[1]; Rate 250 g/ha,100
same,"Plant response rating, Green foxtail",[1]; Rate 500 g/ha,100
same,Plant response rating Wild poinsettia,[19]; Rate 140 g/ha,0
same,Plant response rating Wild poinsettia,[19]; Rate 280 g/ha,40
same,Plant response rating Wild poinsettia,[19]; Rate 560 g/ha,50
same,Plant response rating Wild poinsettia,[19]; Rate 1120 g/ha,70
